Measurements from paper PMC5442318, “Hundreds of dual-stage antimalarial molecules discovered by a functional gametocyte screen” (Nature Communications, 2017).

Columns and labels:
HepG2 cells = test: HepG2 cytotoxicity assay; assay type: cell-based; conditions: mean
Method in brief: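 Cell viability is measured by CellTiter-Glo luminescence. Signal is developed at room temperature and read 10 min after adding the reagent, with plates and reagent first equilibrated for 30 min.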

[1] = system: P. falciparum asexual blood stages; conditions: TCAMS data; ref 1 (Gamo et al., 2010); read-out: Pf Asexual blood stages XC50; cited from earlier work
[2] = system: P. falciparum stages IV–V gametocytes; test: Gametocytocidal ATP-depletion assay (gametocyte ATP bioluminescence); assay type: cell-based, Plasmodium falciparum
Method in brief: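 Read-out is luciferase luminescence of parasite ATP (BacTiter-Glo), standing in for viability. Double-purified mature stage IV–V gametocytes, 12,500 per well, were exposed 48 h at 37 °C in low-O2 gas; screening concentration 2 μM.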

[3] = system: P. falciparum stage V female gametocytes; test: P. falciparum female gametocyte activation assay (Pf FGAA), 24 h or 48 h preincubation, Pfs25 expression readout; assay type: cell-based, Plasmodium falciparum NF54; conditions: mean; read-out: Gametocytes mean Pf FGAA IC50
Method in brief: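 Female activation, triggered by xanthurenic acid and cooling, was scored by imaging Cy3-labelled anti-Pfs25 female gametes after 24 h at 26 °C. Beforehand, purified NF54 stage V gametocytes had been incubated with compound for either 24 h or 48 h (37 °C, 3% O2). Values are pIC50 from full-curve regression.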

Row | Compound | HepG2 cells mean TOX50 (HepG2 cells) | IC50 [1] | Gametocytes mean ATP inhibition at 2µM (%) [2] | IC50 [3]
1 | C#CCOc1ccc2ccccc2c1CNCCCCCCNCc1c(OCC#C)ccc2ccccc12.CS(=O)(=O)O [TCMDC-137838] | 2.92 µM | 780 nM | 77.84% | 1050 nM
2 | Nc1nc(N)c2c(ccc3[nH]c(-c4ccccc4Cl)nc32)n1 [TCMDC-137840] | 2.32 µM | 230 nM | 22.85% | 4420 nM
3 | COc1cc2ccccc2c(OC)c1CCNCCCCNCCc1c(OC)cc2ccccc2c1OC.CS(=O)(=O)O [TCMDC-137842] | 4.17 µM | 890 nM | 60.27% | 1240 nM
4 | CCCCOc1cc(OC)c2ccccc2c1CCNCCCCNCCc1c(OCCCC)cc(OC)c2ccccc12.CS(=O)(=O)O [TCMDC-137845] | 1.97 µM | 1050 nM | 95.21% | 760 nM
5 | CCCCOc1c(CCNCCCCNCCc2cc(OC)c3ccccc3c2OCCCC)cc(OC)c2ccccc12.CS(=O)(=O)O [TCMDC-137848] | 1.97 µM | 930 nM | 84.96% | 610 nM
6 | CS(=O)(=O)O.FC(F)(F)COc1ccc(CNCCCCCCNCc2ccc(OCC(F)(F)F)c3ccccc23)c2ccccc12 [TCMDC-137853] | 2.46 µM | 400 nM | 94.02% | 630 nM
7 | COc1c(CCNCCCCNCCc2cc(Cl)c3ccccc3c2OC)cc(Cl)c2ccccc12.CS(=O)(=O)O [TCMDC-137869] | 1.78 µM | 170 nM | 96.85% | 330 nM
8 | CN(CCCNCc1ccc2ccccc2c1)CCCNCc1ccc2ccccc2c1.Cl [TCMDC-137908] | 5.01 µM | 390 nM | 72.34% | 90 nM
9 | COc1ccc2ccccc2c1CNCCCCCCNCc1c(OC)ccc2ccccc12.Cl [TCMDC-137915] | 4.22 µM | 710 nM | 20.95% | 700 nM
10 | COc1ccc2c(c1)CC(C)(C)NC2CCCCCCCCC1NC(C)(C)Cc2cc(OC)ccc21.O=C(O)C(=O)O (stereo not shown) [TCMDC-137935] | 5.62 µM | 1300 nM | 1.39% | 1470 nM
11 | CCOc1cc(CNCCCCCCNCc2cc(OCC)c(OCC)c3ccccc23)c2ccccc2c1OCC.CS(=O)(=O)O [TCMDC-137939] | 2.00 µM | 280 nM | 5.51% | 1780 nM
12 | CCOc1cc2ccccc2cc1CNCCCCCCNCc1cc2ccccc2cc1OCC.CS(=O)(=O)O [TCMDC-137940] | 6.06 µM | 980 nM | 2.59% | 1290 nM
13 | COc1cc2ccccc2cc1CCNCCCCNCCc1cc2ccccc2cc1OC.CS(=O)(=O)O [TCMDC-137944] | 1.66 µM | 400 nM | 84.04% | 620 nM
14 | COc1cc2c(OC)cccc2cc1CNCCCCCCNCc1cc2cccc(OC)c2cc1OC.CS(=O)(=O)O [TCMDC-137945] | 4.90 µM | 820 nM | -15.51% | 1820 nM
15 | CCCOc1c(CCNCCCCNCCc2ccc3ccccc3c2OCCC)ccc2ccccc12.CS(=O)(=O)O [TCMDC-137950] | 1.72 µM | 480 nM | 95.44% | 640 nM
16 | CCCOc1ccc(CCNCCCCNCCc2ccc(OCCC)c3ccccc23)c2ccccc12.CS(=O)(=O)O [TCMDC-137952] | 2.16 µM | 920 nM | 94.33% | 610 nM
17 | COc1ccc2c(OC)c(CNCCCCCCNCc3ccc4cc(OC)ccc4c3OC)ccc2c1.CS(=O)(=O)O [TCMDC-137953] | 2.11 µM | 920 nM | 2.77% | 1000 nM
18 | COc1c(CNCCCCCCNCc2cc(Cl)c3ccccc3c2OC)cc(Cl)c2ccccc12.CS(=O)(=O)O [TCMDC-137958] | 4.62 µM | 940 nM | -6.18% | 1180 nM
19 | COc1ccc(CCNCCCCNCCc2ccc(OC)c3ccccc23)c2ccccc12.CS(=O)(=O)O [TCMDC-137961] | 2.14 µM | 450 nM | 90.63% | 480 nM

Row | Compound | HepG2 cells mean TOX50 (HepG2 cells) | IC50 [1] | Gametocytes mean ATP inhibition at 2µM (%) [2] | IC50 [3]
20 | CCCCCCOc1ccc2ccccc2c1CNCCCCCCNCc1c(OCCCCCC)ccc2ccccc12.CS(=O)(=O)O [TCMDC-137963] | 2.40 µM | 1060 nM | 77.54% | 1500 nM
21 | CC(C)Oc1ccc2ccccc2c1CNCCCCCCNCc1c(OC(C)C)ccc2ccccc12.CS(=O)(=O)O [TCMDC-137965] | 1.91 µM | 610 nM | 37.88% | 950 nM
22 | CCCOc1ccc2ccccc2c1CNCCCCCCNCc1c(OCCC)ccc2ccccc12.CS(=O)(=O)O [TCMDC-137966] | 2.00 µM | 790 nM | 42.35% | 1030 nM
23 | CC(C)COc1ccc2ccccc2c1CNCCCCCCNCc1c(OCC(C)C)ccc2ccccc12.CS(=O)(=O)O [TCMDC-137972] | 2.19 µM | 690 nM | 92.13% | 810 nM
24 | CCCCOc1c(CNCCCCCCNCc2ccc3ccccc3c2OCCCC)ccc2ccccc12.CS(=O)(=O)O [TCMDC-137975] | 2.21 µM | 870 nM | 37.85% | 1490 nM
25 | COc1ccccc1-c1nc2c(ccc3nc(N)nc(N)c32)[nH]1 [TCMDC-137976] | 2.87 µM | 180 nM | 85.21% | 1130 nM
26 | CC(C)(C)c1ccc(-c2cc3c(ccc4nc(N)nc(N)c43)[nH]2)cc1 [TCMDC-137977] | 1.86 µM | 110 nM | 65.65% | 770 nM
27 | CC(C)(C)c1ccc(-c2nc3c(ccc4nc(N)nc(N)c43)[nH]2)cc1.Cl [TCMDC-137984] | 2.12 µM | 160 nM | 79.78% | 260 nM
28 | CCCN(CCC)CCCN(CCCN(CCC)CCC)c1cc(C)nc(Nc2ccc3cc(Br)ccc3c2)n1.Cl [TCMDC-138006] | 3.43 µM | 210 nM | -22.37% | 990 nM
29 | CCCCCCCCN1CCN(CCCCCCNc2c3ccccc3nc3ccccc23)CC1.Cl [TCMDC-138015] | 3.35 µM | 160 nM | 57.24% | 640 nM
30 | Cl.Clc1ccc(CNCCCCCCCNCc2ccc(Cl)c(Cl)c2)cc1Cl [TCMDC-138075] | 4.57 µM | 370 nM | -3.08% | 700 nM
31 | COc1cc2nc(N3CCC(CNC(=O)c4ccc(-c5ccc(-c6noc(C)n6)cc5C)cc4)CC3)nc(N)c2cc1OC [TCMDC-138155] | 7.62 µM | 220 nM | 5.13% | 1680 nM
32 | CC(=O)c1ccc2nc[nH]c(=O)c2c1 [TCMDC-138172] | 6.24 µM | 720 nM | 67.05% | 980 nM
33 | COc1cc2nc(NCc3cccc(CNC(=O)c4ccc(-c5ccc(C(C)=O)cc5)cc4)c3)nc(N)c2cc1OC.O=C(O)C(F)(F)F [TCMDC-138177] | 6.82 µM | 120 nM | -19.05% | 4730 nM
34 | COc1cc2nc(N3CCN(C(=O)c4c(Cl)nsc4-c4ccccc4Cl)CC3)nc(N)c2cc1OC.O=C(O)C(F)(F)F [TCMDC-138186] | 5.89 µM | 530 nM | 69.90% | 990 nM
35 | Cc1ccc(C(=O)Nc2ccc(Nc3ccnc4cc(-c5ccccn5)ccc34)cc2O)cc1.Cl [TCMDC-138205] | 1.27 µM | 110 nM | 46.13% | 540 nM
36 | COc1ccc(N2CCN(CCCCNCc3ccc(NC(=O)c4cc(Cl)cc(Cl)c4)cc3)CC2)c(OC)c1 [TCMDC-138226] | 4.42 µM | 250 nM | 17.06% | 3110 nM
37 | CN(C)CCNCc1ccc(-c2ccc3c(Nc4ccc(Cl)cc4F)ccnc3c2)o1 [TCMDC-138391] | 0.89 µM | 210 nM | 2.24% | 1710 nM
